The source of these data is patent US9314530B2, “Composition, in aqueous medium, that comprises at least a hyaluronic acid and at least an hydrosoluble salt of sucrose octasulfate” (LABORATOIRES VIVACY, priority 2012, dated 2016).

Holding throughout (assay type): physicochemical
Series [1] can be described thus: Stability with regard to steam autoclaving: viscosity of non-crosslinked hyaluronic acid compositions (rheometer). Here is the method:
For the compositions according to the invention comprising non-crosslinked hyaluronic acid, the viscosity η of the sterilized compositions after the steam autoclaving step is characterized on a TA Instruments AR 2000 Ex rheometer, under controlled constraint conditions, at 25° C. The viscosity value is recorded at a constraint of 0.02 s^−1.
For the compositions comprising non-crosslinked hyaluronic acid, the percentage of loss in the viscosity is the value of the difference in the viscosity of the reference composition after steam autoclaving and the viscosity of the composition comprising non-crosslinked hyaluronic acid and a sulphated oligo-polysaccharide or a sulphated monosaccharide after steam autoclaving over the value of the viscosity of the reference composition after steam autoclaving.
(§1) For these all measurements, a reference composition is formulated, the aqueous solution of sulphated oligo-polysaccharide or of sulphated monosaccharide being replaced by the same amount of aqueous solution of phosphate buffer.
Nine compositions comprising non-crosslinked hyaluronic acid and a sulphated oligo-polysaccharide or a sulphated monosaccharide at a concentration of 1 mg/g in the composition are prepared according to the procedure described in Example 1.
A reference composition is also formulated, the aqueous solution of sulphated oligo-polysaccharide or of sulphated monosaccharide being replaced by the same amount of aqueous solution of phosphate buffer.
A series of five compositions comprising non-crosslinked hyaluronic acid, mannitol and a sulphated oligo-polysaccharide or a sulphated monosaccharide at a concentration of 1 mg/g in the composition is prepared according to the procedure described in Example 3.
Examples of tests on formulations of KSOS (at different concentrations) with a non-crosslinked gel of Example 1 at the concentrations and ratios described in Table 7 below.
The gels are sterilized and then characterized by rheology according to Example 8.

A short description of series [2]: Stability with regard to steam autoclaving: elastic component G′ of crosslinked hyaluronic acid compositions (rheometer). Here is the method:
For the compositions according to the invention comprising crosslinked hyaluronic acid, the elastic component G′ of the sterilized compositions after the autoclaving step is characterized on a TA Instruments AR 2000 Ex rheometer, under oscillation conditions, at 25° C., the values of the elastic component being recorded at a frequency of 1 Hz.
For the compositions comprising crosslinked hyaluronic acid, the percentage of loss in the elastic component G′ is the value of the difference in the elastic component G′ of the reference composition after steam autoclaving and the elastic component G′ of the composition comprising crosslinked hyaluronic acid and a sulphated oligo-polysaccharide or a sulphated monosaccharide after steam autoclaving over the value of the elastic component G′ of the reference composition after steam autoclaving.
as §1
A series of four compositions comprising crosslinked hyaluronic acid, mannitol and a sulphated oligo-polysaccharide or a sulphated monosaccharide at a concentration of 1 mg/g in the composition is prepared according to the procedure described in Example 4.
A reference composition is also formulated, the aqueous solution of sulphated oligo-polysaccharide or of sulphated monosaccharide being replaced by an equivalent amount of aqueous solution of phosphate buffer.
Examples of tests on formulations of KSOS (at different concentrations) with a 20 mg/g crosslinked NaHA gel (IPN-like gel, sold under the Stylage® M brand), which is the reference gel.
The gels are sterilized and then characterized.
The percentage of loss in the elastic component G′ with respect to the reference composition is measured according to Example 8 and the difference between the injectability force, through 30-gauge ½ hypodermic needles, of the reference gel and of the gels comprising potassium sucrose octasulphate is measured.
Example of test on formulation of KSOS with a gel comprising crosslinked hyaluronic acid at the concentration and at the ratio described in Table 8 below.
The gels are prepared according to the procedure described in Example 2 and are then characterized by rheology according to Example 8.

A short description of series [3]: Solubility of salts of sucrose octasulphate.
[4] abbreviates: after steam autoclaving, non-crosslinked hyaluronic acid + mannitol + sulphated saccharide at 1 mg/g (procedure of Example 3).
Setting [5] is: after steam autoclaving, non-crosslinked hyaluronic acid + sulphated saccharide at 1 mg/g (procedure of Example 1), viscosity at 25° C., 0.02 s^−1.
Setting [6] is: after steam autoclaving, crosslinked hyaluronic acid + mannitol + sulphated saccharide at 1 mg/g (procedure of Example 4), 25° C., 1 Hz.

On to `CC(=O)N[C@H]1C(O)O[C@H](COS(=O)(=O)O)[C@@H](O)[C@@H]1O` (stereo partly drawn) [N-Acetyl-D-glucosamine-6-sulphate, reference compound], for which the figures for the “% of loss in the viscosity with respect to the reference composition” value (shortened to “% of loss in the viscosity”) in series [1] (setting [4]) and in series [1] (setting [5]) were 60% and 96%, respectively. Moreover, the “% of loss in the elastic component G′ with respect to the reference composition” value (shortened to “% of loss in the elastic component G′”) in series [2] (setting [6]) was found to be 32%.

Take `O=S(=O)([O-])OC[C@H]1O[C@@](COS(=O)(=O)[O-])(O[C@H]2O[C@H](COS(=O)(=O)[O-])[C@@H](OS(=O)(=O)[O-])[C@H](OS(=O)(=O)[O-])[C@H]2OS(=O)(=O)[O-])[C@@H](OS(=O)(=O)[O-])[C@@H]1OS(=O)(=O)[O-].[Na+].[Na+].[Na+].[Na+].[Na+].[Na+].[Na+].[Na+]` [Sodium sucrose octasulphate]: the “% of loss in the viscosity” value in series [1] (setting [4]) and in series [1] (setting [5]) was 0% in each case. The “solubility compared with the potassium salt” value in series [3] is given as “greater than that of the potassium salt”.

In the case of `O=S(=O)(O)N[C@H]1C(O)O[C@H](CO)[C@@H](O)[C@@H]1O` (stereo partly drawn) [D-Glucosamine-2-sulphate, reference compound], the results for the “% of loss in the viscosity” value in series [1] (setting [4]) and in series [1] (setting [5]) were 25% and 87%, respectively. In addition, the “% of loss in the elastic component G′” value in series [2] (setting [6]) is 18%.

With Potassium sucrose octasulphate, the “% of loss in the viscosity” value in series [1] (after autoclaving, non-crosslinked NaHA 4 mg/g, KSOS 40 mg/g, [HA]/[SOS] 0.1) turned out to be 0%; in series [1] (after autoclaving, non-crosslinked NaHA 10 mg/g, KSOS 10 mg/g, [HA]/[SOS] 1), 0%; in series [1] (after autoclaving, non-crosslinked NaHA 10 mg/g, KSOS 20 mg/g, [HA]/[SOS] 0.5) it was 0%; in series [1] (after autoclaving, non-crosslinked NaHA 20 mg/g, KSOS 10 mg/g, [HA]/[SOS] 2) it was 0%; in series [1] (after autoclaving, non-crosslinked NaHA 20 mg/g, KSOS 20 mg/g, [HA]/[SOS] 1), 0%; in series [1] (after autoclaving, non-crosslinked NaHA 25 mg/g, KSOS 0.01 mg/g, [HA]/[SOS] 2500) it was 0%. In addition, the “% of loss in the viscosity” value came to 0% in series [1] (after autoclaving, non-crosslinked NaHA 25 mg/g, KSOS 0.05 mg/g, [HA]/[SOS] 500); 0% in series [1] (setting [4]); 0% in series [1] (setting [5]). For the same compound, in series [3], the maximum solubility is listed as 40 mg/g. Further, the “% of loss in the elastic component G′” value in series [2] (after autoclaving, crosslinked NaHA 10.3 mg/g, KSOS 25 mg/g, [HA]/[SOS] 0.4 (procedure of Example 2)) was 0%; in series [2] (setting [6]) it was 0%; in series [2] (after steam autoclaving, crosslinked hyaluronic acid + mannitol + sulphated saccharide at 1 mg/g (procedure of Example 4), 25° C., 1 Hz, listed as potassium sucrose octasulphate), “no loss”.

As to “Hexasulphated carrageenan(hexasaccharide) [reference compound]”, the “% of loss in the viscosity” value in series [1] (setting [5]) was 92%.

For “Chondroitin sulphate [reference compound]”, in series [1] (setting [5]), the “% of loss in the viscosity” value worked out at 62%.

“Dextran sulphate(40000) [reference compound]”: the “% of loss in the viscosity” value in series [1] (setting [5]) is recorded as 16%.

In the case of “Disulphated carrageenan(disaccharide) [reference compound]”, the “% of loss in the viscosity” value in series [1] (setting [5]) was found to be 94%.

With `N[C@H]1C(O)O[C@H](COS(=O)(=O)O)[C@@H](O)[C@@H]1O` (stereo partly drawn) [D-Glucosamine-6-sulphate, reference compound], the “% of loss in the viscosity” value is 90% in series [1] (setting [4]) and 98% in series [1] (setting [5]). Besides, the “% of loss in the elastic component G′” value in series [2] (setting [6]) stood at 74%.
